According to patent US20210253575A1, “PYRROLIDINE AMINE COMPOUNDS FOR THE TREATMENT OF AUTOIMMUNE DISEASE” (Hoffmann-La Roche Inc., priority 2018, published 2021):

Biological target: T1, human TLR9 (Homo sapiens, UniProt Q9NR96)
T1 sequence (Q9NR96 26-1032): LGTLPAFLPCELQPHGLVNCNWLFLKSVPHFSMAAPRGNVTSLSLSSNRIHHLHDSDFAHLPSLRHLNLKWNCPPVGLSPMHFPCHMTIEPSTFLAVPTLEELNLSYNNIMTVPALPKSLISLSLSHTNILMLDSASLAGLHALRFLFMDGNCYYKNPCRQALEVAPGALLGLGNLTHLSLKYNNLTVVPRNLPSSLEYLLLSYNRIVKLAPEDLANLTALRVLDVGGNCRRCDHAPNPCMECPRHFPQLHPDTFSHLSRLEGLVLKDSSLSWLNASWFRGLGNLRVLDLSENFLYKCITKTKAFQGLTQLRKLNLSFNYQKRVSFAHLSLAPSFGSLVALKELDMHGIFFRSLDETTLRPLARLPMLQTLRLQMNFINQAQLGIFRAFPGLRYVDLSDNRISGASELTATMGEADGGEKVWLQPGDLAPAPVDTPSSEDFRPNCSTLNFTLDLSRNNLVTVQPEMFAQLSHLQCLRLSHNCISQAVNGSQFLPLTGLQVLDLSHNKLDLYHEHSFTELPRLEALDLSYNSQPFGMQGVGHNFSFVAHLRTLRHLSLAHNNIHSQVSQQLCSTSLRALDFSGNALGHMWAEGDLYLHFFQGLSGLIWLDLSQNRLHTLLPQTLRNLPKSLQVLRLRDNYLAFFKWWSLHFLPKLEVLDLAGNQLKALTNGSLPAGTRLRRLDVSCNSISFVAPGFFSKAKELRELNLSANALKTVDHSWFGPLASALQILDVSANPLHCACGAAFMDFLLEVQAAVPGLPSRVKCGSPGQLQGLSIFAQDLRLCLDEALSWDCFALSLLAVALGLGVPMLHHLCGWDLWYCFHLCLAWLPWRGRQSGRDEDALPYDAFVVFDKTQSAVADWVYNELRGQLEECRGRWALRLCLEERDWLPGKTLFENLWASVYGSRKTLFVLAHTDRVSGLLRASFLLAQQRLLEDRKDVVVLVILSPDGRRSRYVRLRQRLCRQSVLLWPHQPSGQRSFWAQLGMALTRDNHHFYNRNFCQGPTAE
Assay: HEK293-Blue-hTLR-9 cells assay (SEAP reporter, ODN2006 stimulation)
Type: cell-based
Conditions: HEK293-Blue-hTLR9 cells, ODN2006 ligand, 20 hrs incubation
Method in brief: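 HEK293-Blue-hTLR9 cells with NF-κB/AP-1-driven SEAP reporter, stimulated with ODN2006 in presence of serially diluted compounds (1% DMSO) for 20 h at 37 °C. Supernatant SEAP measured with QUANTI-Blue after 2 h at 37 °C, absorbance 620–655 nm.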

SMILES	IC50
N#Cc1ccc(N2C[C@H](CN3CCC(CCN)CC3)[C@@H](C(F)(F)F)C2)c2nccnc12 [Example 79, 8-[(3S,4R)-3-[[4-(2-aminoethyl)-1-piperidyl]methyl]-4-(trifluoromethyl)pyrrolidin-1-yl]quinoxaline-5-carbonitrile]	248 nM
N#Cc1ccc(N2CC(CN3C4CCC3CC(N)C4)C3(CC3)C2)c2nccnc12 (stereo not shown) [Example 25, 8-[7-[(3-Amino-8-azabicyclo[3.2.1]octan-8-yl)methyl]-5-azaspiro[2.4]heptan-5-yl]quinoxaline-5-carbonitrile]	75 nM
C[C@H]1CN(c2ccc(C#N)c3nccnc23)C[C@@H]1CN1CCC2(CCNC2)C1 (stereo partly drawn) [Example 30, 8-[(3S,4R)-3-(2,7-diazaspiro[4.4]nonan-2-ylmethyl)-4-methyl-pyrrolidin-1-yl]quinoxaline-5-carbonitrile]	307 nM
C[C@@H]1CN(c2ccc(C(F)(F)F)c3nccnc23)C[C@H]1CN1CCC2(CCNCC2)CC1 (relative stereo) [Example 21, 3-[[Trans-4-methyl-1-[8-(trifluoromethyl)quinoxalin-5-yl]pyrrolidin-3-yl]methyl]-3,9-diazaspiro[5.5]undecane]	294 nM
FC(F)(F)c1ccc(N2CC(CN3C[C@H]4CNC[C@H]4C3)C3(CC3)C2)c2nccnc12 (stereo partly drawn) [Example 41, 5-[7-[[(3aR,6aS)-2,3,3a,4,6,6a-hexahydro-H-pyrrolo[3,4-c]pyrrol-5-yl]methyl]-5-azaspiro[2.4]heptan-5-yl]-8-(trifluoromethyl)quinoxaline]	1200 nM
N#Cc1ccc(N2CC(CN3CCOC4(CCNCC4)C3)C3(CC3)C2)c2nccnc12 (stereo not shown) [Example 67, 8-[7-(1-Oxa-4,9-diazaspiro[5.5]undecan-4-ylmethyl)-5-azaspiro[2.4]heptan-5-yl]quinoxaline-5-carbonitrile]	869 nM
N#Cc1ccc(N2C[C@H](CN3CCC4(CCNCC4)C3)[C@@H](C(F)(F)F)C2)c2nccnc12 [Example 46, 8-[(3S,4R)-3-(2,8-diazaspiro[4.5]decan-2-ylmethyl)-4-(trifluoromethyl)pyrrolidin-1-yl]quinoxaline-5-carbonitrile]	275 nM
N#Cc1ccc(N2C[C@H](CN3CCC(N4CCCCC4)CC3)[C@@H](C(F)(F)F)C2)c2cccnc12 [Example 10, 5-[(3S,4R)-3-[[4-(1-piperidyl)-1-piperidyl]methyl]-4-(trifluoromethyl)pyrrolidin-1-yl]quinoline-8-carbonitrile]	834 nM
N#Cc1ccc(N2C[C@H](CN3CCCC4(CCNCC4)C3)[C@@H](C(F)(F)F)C2)c2cccnc12 [Example 57, 5-[(3S,4R)-3-(2,9-Diazaspiro[5.5]undecan-2-ylmethyl)-4-(trifluoromethyl)pyrrolidin-1-yl]quinoline-8-carbonitrile]	331 nM
N#Cc1ccc(N2CC(CN3CCC4(CCCCN4)CC3)C3(CC3)C2)c2nccnc12 (stereo not shown) [Example 65, 8-[7-(1,9-Diazaspiro[5.5]undecan-9-ylmethyl)-5-azaspiro[2.4]heptan-5-yl]quinoxaline-5-carbonitrile]	68 nM
N#Cc1ccc(N2C[C@@H](CN3CCC4(CCNCC4)CC3)[C@H](C(F)F)C2)c2cccnc12 (relative stereo) [Example 27, 5-[Trans-3-(3,9-diazaspiro[5.5]undecan-3-ylmethyl)-4-(difluoromethyl)pyrrolidin-1-yl]quinoline-8-carbonitrile]	32 nM
N#Cc1ccc(N2C[C@H](CN3CCC4(CCCNC4)C3)[C@@H](C(F)(F)F)C2)c2cccnc12 (stereo partly drawn) [Example 6, 5-[(3S,7R)-3-(2,9-diazaspiro[4.5]decan-2-ylmethyl)-4-(trifluoromethyl)pyrrolidin-1-yl]quinoline-8-carbonitrile]	136 nM
N#Cc1ccc(N2CC(CN3CCC4NCC4C3)C3(CC3)C2)c2nccnc12 (stereo not shown) [Example 66, 8-[7-(3,7-Diazabicyclo[4.2.0]octan-3-ylmethyl)-5-azaspiro[2.4]heptan-5-yl]quinoxaline-5-carbonitrile]	123 nM
N#Cc1ccc(N2C[C@H](CN3CC4(CC(N)C4)C3)[C@@H](C(F)(F)F)C2)c2cccnc12 [Example 53, 5-[(3S,4R)-3-[(6-Amino-2-azaspiro[3.3]heptan-2-yl)methyl]-4-(trifluoromethyl)pyrrolidin-1-yl]quinoline-8-carbonitrile]	219 nM
N#Cc1ccc(N2C[C@H](CN3CCC4(CCCNC4)CC3)[C@@H](C(F)(F)F)C2)c2cccnc12 [Example 55, 5-[(3S,4R)-3-(2,9-Diazaspiro[5.5]undecan-9-ylmethyl)-4-(trifluoromethyl)pyrrolidin-1-yl]quinoline-8-carbonitrile]	173 nM
N#Cc1ccc(N2C[C@H](CN3CCC4(CCNCC4)C3)[C@@H](C(F)(F)F)C2)c2cccnc12 [Example 56, 5-[(3S,4R)-3-(2,8-Diazaspiro[4.5]decan-2-ylmethyl)-4-(trifluoromethyl)pyrrolidin-1-yl]quinoline-8-carbonitrile]	159 nM
N#Cc1ccc(N2C[C@H](CN3CCC(N)CC3)[C@@H](C(F)(F)F)C2)c2nccnc12 [Example 51, 8-[(3S,4R)-3-[(4-amino-1-piperidyl)methyl]-4-(trifluoromethyl)pyrrolidin-1-yl]quinoxaline-5-carbonitrile]	359 nM
N#Cc1ccc(N2C[C@H](CN3CCC4(CCNC4)CC3)[C@@H](C(F)(F)F)C2)c2nccnc12 [Example 14, 8-[(3S,4R)-3-(2,8-Diazaspiro[4.5]decan-8-ylmethyl)-4-(trifluoromethyl)pyrrolidin-1-yl]quinoxaline-5-carbonitrile]	153 nM
N#Cc1ccc(N2CC(CN3CC4CCNCC43)C3(CC3)C2)c2nccnc12 (stereo not shown) [Example 50, 8-[7-(3,8-Diazabicyclo[4.2.0]octan-8-ylmethyl)-5-azaspiro[2.4]heptan-5-yl]quinoxaline-5-carbonitrile]	259 nM
